Calls of active or inactive are those of the source. The calls are words filed in the database; no cut-off is given here.
The compounds below were run on Mus musculus (assay: Ability to abolish the hindlimb tonic extensor components of a maximal electroshock-induced seizure in vivo at 5 mg/kg; None mice protected).
Format: functional

SMILES | Protection [%]
C[C@@H]1Cc2cc3c(cc2C(c2ccc(N)cc2)=NN1c1nc2ccccc2s1)OCO3 | 0

The compounds below were run on Mus musculus (assay: Ability to abolish the hindlimb tonic extensor components of a maximal electroshock-induced seizure in vivo).
Format: functional

SMILES | ED50 [mg/kg]
C[C@@H]1Cc2cc3c(cc2C(c2ccc(N)cc2)=NN1c1ccccc1)OCO3 | 1.47
C[C@@H]1Cc2cc3c(cc2C(c2ccc(N)cc2)=NN1c1ccccn1)OCO3 | 0.76
C[C@@H]1Cc2cc3c(cc2C(c2ccc(N)cc2)=NN1c1nncc2ccccc12)OCO3 | 7.8
C[C@@H]1Cc2cc3c(cc2C(c2ccc(N)cc2)=NN1c1nc2ccccc2s1)OCO3 | 5
CC(=O)N1N=C(c2ccc(N)cc2)c2cc3c(cc2C[C@H]1C)OCO3 [TALAMPANEL] | 0.48
C[C@@H]1Cc2cc3c(cc2C(c2ccc(N)cc2)=NN1c1nc2ccccc2[nH]1)OCO3 | 3.2

What follows are compounds tested on Mus musculus (assay: Ability to abolish the hindlimb tonic extensor components of a maximal electroshock-induced seizure in vivo; NA means Not active at 10 mg/kg).
Format: functional, organism-based
Design: dose 10 mg/kg

SMILES | ED50
C[C@@H]1Cc2cc3c(cc2C(c2ccc(N)cc2)=NN1c1cccc2ccccc12)OCO3 | inactive
C[C@@H]1Cc2cc3c(cc2C(c2ccccc2)=NN1c1ccccn1)OCO3 | inactive
C[C@@H]1Cc2cc3c(cc2C(c2ccc(Cl)cc2)=NN1c1ccccn1)OCO3 | inactive
C[C@@H]1Cc2cc3c(cc2C(c2ccc(I)cc2)=NN1c1ccccn1)OCO3 | inactive

The compounds below were run on Mus musculus (assay: Ability to abolish the hindlimb tonic extensor components of a maximal electroshock-induced seizure in vivo at 10 mg/kg).
Format: functional

SMILES | Protection [%]
COC(=O)c1ccsc1N1N=C(c2ccc(N)cc2)c2cc3c(cc2C[C@H]1C)OCO3 | 40
C[C@@H]1Cc2cc3c(cc2C(c2ccc(N)cc2)=NN1c1nc2ccccc2s1)OCO3 | 80

These compounds were tested on Mus musculus (assay: Ability to abolish the hindlimb tonic extensor components of a maximal electroshock-induced seizure in vivo; NA means Not active).
Format: functional, organism-based

SMILES | ED50
C[C@@H]1Cc2cc3c(cc2C(c2ccc(N)cc2)=NN1c1nccc(C(F)(F)F)n1)OCO3 | inactive
C[C@@H]1Cc2cc3c(cc2C(c2ccc(N)cc2)=NN1c1ccc2ccccc2n1)OCO3 | inactive
